In US9233127B2, “Compositions and methods for CXCR4 signaling and umbilical cord blood stem cell engraftment” (University of Virginia Patent Foundation, priority 2012, dated 2016):

Experiments:
[1] = test system: Sca-1+ cells; assay: Hematopoietic recovery of lethally irradiated mice given C3a primed Sca-1+ cells; assay type: in vivo
From the text: FIG. 6A-B—Sca-1^+ Cells Primed with C3a Engraft Faster in Lethally Irradiated Mice. 6A—left panel; 6B—right panel.

[2] = test system: CXCR4; assay: Western blot of CXCR4 in lipid raft membrane fractions of THP-1 cells; assay type: cell-based, human
Protocol: FIG. 15A-B—Western blot analysis of the colocalization of CXCR4 in fractions of cell membranes enriched in lipid rafts (fractions 3-5) and depleted of lipid rafts (fractions 9-11). Panel A: Hematopoietic THP-1 cells were stimulated by C3a (1 μg/mL) or desArgC3a (1 μg/mL) or not stimulated (control). CXCR4 was detected in these membrane fractions by Western blot along with ganglioside GM1, a marker of lipid rafts. Experiments were performed three times with similar results. Panel B: In control experiments, cells were pretreated for 1 hr with 10 mM MβCD. A representative study is shown.
Furthermore, direct evidence of the effect of priming agents on CXCR4 incorporation into membrane lipid rafts was obtained from Western blot analysis of CXCR4 expression in various fractions of cell membranes isolated according to their lipid raft content (Example 2, FIG. 15A-B). […] The role of C3a in incorporation of CXCR4 into membrane lipid rafts in UCB cells and involvement of other signaling molecules to this phenomenon will be evaluated in Aim 1.

[3] = test system: UCB progenitors (human CD45 cells); assay: Long-term human engraftment of C3a primed UCB in NOD/SCID mice; assay type: in vivo
Protocol: FIG. 5A-B—Long-Term Engraftment of C3a Primed Progenitors (comprising upper and lower panels).
FIG. 54A-B—NOD.SCID engraftment comparing C3a Primed UCB vs. Control. […] 54A—control; 54B—C3a
These laboratory experiments were performed to evaluate responsiveness of UCB to SDF-1 gradient correlated with an outcome of injections in NOD/SCID mice to evaluate engraftment in vivo. In vivo studies incorporated humanized NOD.SCID/IL2rγ^null (NOG) mice were conducted to assess proportions and kinetics of human HSC homing, engraftment, comparing C3a primed UCB CD34^+ HSC vs. controls. NOD.SCID/IL2rγ^null is used in our studies as these mice lack the cytoplasmic region of the IL-2Rγ and reproducibly develop human T, myeloid, NK, and B-lymphoid cells when transplanted with cord blood CD34^+ cells. This model therefore provides a platform to analyze in vivo competitive repopulation of the full lymphopoietic system. […] More mature progenitors are considered to have exhausted after 8 weeks in this NOD.SCID model and human cells present are presumed to be derived from transplanted primitive progenitor cells. HLA staining was used to determine UCB chimerism and relative contribution of C3a primed UCB CD34^+ HSC to marrow engraftment.

[4] = C3a primed hematopoietic progenitors

**Q.** “C3a: 77 amino acid residue protein derived from the human complement C3a precursor; SEQ ID NO:1” was tested. Which “faster rate of leukocyte recovery relative to untreated mice” value [1, 4] did it give?
**A.** 5 days

**Q.** What about the platelet counts [1, 4] of the same substance?
**A.** benefit in platelet counts

**Q.** And the “infusional toxicity and coagulopathy” value ([1]; murine studies)?
**A.** neither infusional toxicity nor evidence of coagulopathy was observed

**Q.** And the “incorporation of Rac-1 into membrane lipid rafts” value [2]?
**A.** increased the incorporation of Rac-1

**Q.** What about the “incorporation of CXCR4 into GM1-enriched membrane lipid rafts (fractions 3-5)” value ([2]; 1 μg/mL) of the same substance?
**A.** stimulates incorporation of CXCR4

**Q.** What about the “human CD45 cells detected by FACS in marrow” value ([3]; NOD.SCID at 8 weeks after injection, vs control) of the same substance?
**A.** significantly higher

**Q.** And the “long-term human engraftment, flow cytometry for human anti-CD45” value ([3]; NOD/SCID mice harvest after 12 weeks, vs unprimed cells)?
**A.** exhibit long-term human engraftment
